{
  "source": "patent US20130236568A1",
  "about": "“PHOSPHAPLATINS HAVING ANTI-ANGIOGENIC, ANTI-METASTATIC, AND PRO-APOPTOTIC PROPERTIES AND USES THEREOF” (Ohio University, priority 2011, published 2013)",
  "assay_type_in_all_cases": "cell-based, human",
  "key": {"[1]": {"tested_on": "VEGFR2 gene", "assay": "Quantitative real-time PCR, VEGFR2 gene expression in A2780 cells", "method": "(§1) Evaluations of selected gene expressions in Human Umbilical Vein Endothelial Cells (HUVEC) and Human Ovarian Cancer Cells by quantitative reverse transcriptase polymerase chain reaction (PCR)\n(§2) Quantitative real-time PCR experiments were performed to estimate the expression of a selection of targeted genes. HUVEC cells (Lonza Walkersville, Frederick, Md.) were cultured on 0.1% gelatin-coated petri dishes by following standard protocols recommended by the vendor in a humidified incubator by maintaining 5% CO2 at 37° C. Human epithelial ovarian cancer cells (A2780) and cisplatin-resistant cells (A2780/C30) were cultured in RPMI 1640 with or without cisplatin (7 μM) and pyrodach-4 (180 μM) for 0, 3, 12 and 24 hours. […] HUVECs were treated with or without cisplatin (7 μM) or pyrodach-4 (90 or 180 μM) for various durations ranging from 1 hr. to 6 hrs.\n(§3) Both treated and untreated cancer cells were maintained in RPMI 1640 medium with 10% fetal bovine serum, 2 μmol L-glutamine, 100 units/mL penicillin-streptomycin and 0.25 units/mL insulin solution, at 37° C. with 5% CO2. RNA was isolated from both the treated and untreated cells. […] The quantity and purity of RNA were determined by UV spectroscopy (NanoDrop 2000 Thermo Scientific, Wilmington, Del.). A minimum absorbance ratio index (ratio of the absorbance measured at 260 nm over that at 280 nm) of 1.9 was used as an acceptable purity. […] The target gene was labeled with a blue dye (FAM, absorbance: 494 nm, emission: 518 nm) while the reference gene was tagged with a green dye (VIC, absorbance: 538 nm, emission: 554 nm). The cDNA concentrations were selected such that the threshold cycle (Ct) values for the target genes were between 17 and 32, most sensitive for the fluorescence detection by ABI StepOnePlus™ instrument used for the measurements.\n(§4) The threshold cycle number (Ct), the point at which the fluorescence of the qPCR reaction just exceeds the threshold fluorescence of the detection system, was determined. […]"}, "[2]": {"tested_on": "Bcl-2", "assay": "Expression of key genes with and without p53 inhibitor (Table 3): Bcl-2", "settings": "positive = manifold increase, negative = decrease vs untreated cells", "method": "as §2\nas §3, with “The cDNA concentrations were selected such that the threshold cycle (Ct) values for the target genes were between 17 and 32, most sensitive for the fluorescence detection by ABI StepOnePlus™ instrument used for the measurements.” left out"}, "[3]": {"tested_on": "Caspase 3", "assay": "Expression of key genes with and without p53 inhibitor (Table 3): Caspase 3", "settings": "positive = manifold increase, negative = decrease vs untreated cells", "method": "as §2\nas §3, with “The cDNA concentrations were selected such that the threshold cycle (Ct) values for the target genes were between 17 and 32, most sensitive for the fluorescence detection by ABI StepOnePlus™ instrument used for the measurements.” left out"}, "[4]": {"tested_on": "Caspase 9", "assay": "Expression of key genes with and without p53 inhibitor (Table 3): Caspase 9", "settings": "positive = manifold increase, negative = decrease vs untreated cells", "method": "as §2\nas §3, with “The cDNA concentrations were selected such that the threshold cycle (Ct) values for the target genes were between 17 and 32, most sensitive for the fluorescence detection by ABI StepOnePlus™ instrument used for the measurements.” left out"}, "[5]": {"tested_on": "FasL", "assay": "Expression of key genes with and without p53 inhibitor (Table 3): FasL", "settings": "positive = manifold increase, negative = decrease vs untreated cells", "method": "as §2\nas §3, with “The cDNA concentrations were selected such that the threshold cycle (Ct) values for the target genes were between 17 and 32, most sensitive for the fluorescence detection by ABI StepOnePlus™ instrument used for the measurements.” left out"}, "[6]": {"tested_on": "Fas", "assay": "Quantitative real-time PCR, Fas expression in HUVEC", "settings": "HUVEC treated with pyrodach-4", "method": "as §1\n(§5) Quantitative real-time PCR experiments were performed to estimate the expression of a selection of targeted genes. HUVEC cells (Lonza Walkersville, Frederick, Md.) were cultured on 0.1% gelatin-coated petri dishes by following standard protocols recommended by the vendor in a humidified incubator by maintaining 5% CO2 at 37° C. […]\nas §3, with “CO2.” for “CO2. RNA was isolated from both the treated and untreated cells.”, “The cDNA concentrations were selected such that the threshold cycle (Ct) values for the target genes were between 17 and 32, most sensitive for the fluorescence detection by ABI StepOnePlus™ instrument used for the measurements.” left out\nas §4"}, "[7]": {"tested_on": "caspase-9", "assay": "Quantitative real-time PCR, caspase-9 expression in HUVEC", "settings": "HUVEC treated with pyrodach-4", "method": "as §1, §5\nas §3, with “CO2.” for “CO2. RNA was isolated from both the treated and untreated cells.”, “The cDNA concentrations were selected such that the threshold cycle (Ct) values for the target genes were between 17 and 32, most sensitive for the fluorescence detection by ABI StepOnePlus™ instrument used for the measurements.” left out\nas §4"}, "[8]": {"tested_on": "A2780 cells", "assay": "Cell death detection assay with ELISA, A2780 cells", "settings": "24 hr", "method": "In these experiments, ovarian cancer cells were treated with pyrodach-4 in the presence and absence of inhibitors PFT-α (an inhibitor p53) and LY29400 (an inhibitor of PI3K).\nCells were treated with compounds for 24 hr. The different treatment groups from left to right are: control, 7 μM cisplatin, Con+PFT-α, 180 μM D4, 180 μM D4+PFT-α, 180 μM D4+LY294002. Statistical analysis was conducted using the Tukey test. N=3 and P<0.05. In the figure, “*” indicates values significant from untreated control.\nA2780 and A2780/C30 cells were grown in monolayers, trypsinized and suspended in supplemented RPMI 1640 media as described in Example 5. All the treatments on the Fc/A2780 and Fc/A2780/C30 cell samples were carried out in triplicate. The ELISA was performed according to the manufacturer's instructions. Briefly, 50,000 cells were plated for each treatment and the cells were allowed to adhere for 4-6 hours. Cells were then either incubated with media alone (untreated sample) or with pyrodach-4 or cisplatin in the concentrations indicated above. […] The absorbances were measured at 405 and 490 nm for each treatment type using SPECTRA Max M2 multichannel fluorescence plate reader (Molecular Devices, Sunnyvale, Calif.). The absorbances of the treated samples were normalized to the substrate solution. […]"}, "[9]": {"tested_on": "A2780/C30 cells", "assay": "Cell death detection assay with ELISA, A2780/C30 cells", "procedure": "The different treatment groups from left to right are: control, 7 μM cisplatin, Con+PFT-α, 180 μM D4, 180 μM D4+PFT-α, 180 μM D4+LY294002. Apoptosis was quantified using the Cell Death Detection ELISA from Roche.\nA2780 and A2780/C30 cells were grown in monolayers, trypsinized and suspended in supplemented RPMI 1640 media as described in Example 5. All the treatments on the Fc/A2780 and Fc/A2780/C30 cell samples were carried out in triplicate. The ELISA was performed according to the manufacturer's instructions. Briefly, 50,000 cells were plated for each treatment and the cells were allowed to adhere for 4-6 hours. Cells were then either incubated with media alone (untreated sample) or with pyrodach-4 or cisplatin in the concentrations indicated above. DNA of the treated and untreated cells was assayed for nucleosomal DNA using the ELISA kit (purchased from Roche Diagnostics, Mannheim, Germany). The cells were lysed for 30 minutes using the lysis buffer. After centrifuging, 10% (v/v) supernanant was incubated with anti-histone-biotin and anti-DNA-peroxidase. After two hour incubation, the pellets were washed three times and incubated with the substrate solution. The absorbances were measured at 405 and 490 nm for each treatment type using SPECTRA Max M2 multichannel fluorescence plate reader (Molecular Devices, Sunnyvale, Calif.). The absorbances of the treated samples were normalized to the substrate solution."}, "[10]": {"settings": "180 μM D4 with PFT-α 15 μM or LY294002 30 μM"}},
  "data": [
    {"substance": "trans-(±)-1,2-cyclohexanediamine-trans-dihydroxo(pyrophosphato) platinum(IV) [Pyrodach-4]", "values": [
      {"measurement": "Normalized expression of VEGFR2 gene", "setting": "[1]; A2780 (cisplatin-sensitive), positive = manifold increase, negative = relative decrease vs untreated cells, cisplatin 7 μM, pyrodach-4 180 μM", "result": "−2.0"},
      {"measurement": "Suppression of VEGFR-2 gene expression", "setting": "[1]; cisplatin-sensitive human ovarian cancer cells", "result": "≤ 50", "unit": "%"},
      {"measurement": "Expression of Bcl-2", "setting": "[2]; Pyrodach-4 + PFT-α", "result": "−2.0"},
      {"measurement": "Expression of Bcl-2", "setting": "[2]; Pyrodach-4 treatment only", "result": 1.0},
      {"measurement": "Expression of Caspase 3", "setting": "[3]; Pyrodach-4 + PFT-α", "result": "−1.2"},
      {"measurement": "Expression of Caspase 3", "setting": "[3]; Pyrodach-4 treatment only", "result": 2.6},
      {"measurement": "Expression of Caspase 9", "setting": "[4]; Pyrodach-4 + PFT-α", "result": 1.0},
      {"measurement": "Expression of Caspase 9", "setting": "[4]; Pyrodach-4 treatment only", "result": 2.0},
      {"measurement": "Expression of FasL", "setting": "[5]; Pyrodach-4 + PFT-α", "result": "undetectable"},
      {"measurement": "Expression of FasL", "setting": "[5]; Pyrodach-4 treatment only", "result": 4.6},
      {"measurement": "Over-expression of Fas", "setting": "[6]", "result": "2-5 fold"},
      {"measurement": "Over-expression of caspase-9", "setting": "[7]", "result": "2-3 fold"},
      {"measurement": "Overall apoptotic cell death in the presence of inhibitors, compared to cisplatin", "setting": "[8]; 180 μM D4 with PFT-α 15 μM or LY294002 30 μM vs 7 μM cisplatin", "result": "remained extremely high compared to cisplatin"},
      {"measurement": "Effect of p53 and PI3K inhibitors on apoptotic cell death (ELISA absorbance)", "setting": "[8]; [10]", "result": "some reduction in cell death"},
      {"measurement": "Apoptotic cell death (ELISA absorbance)", "setting": "[9]; 7 μM cisplatin or 180 μM D4", "result": "unambiguously showed cell death"},
      {"measurement": "Effect of p53 and PI3K inhibitors on apoptotic cell death (ELISA absorbance)", "setting": "[9]; [10]", "result": "no effects"}
    ]}
  ]
}
